Values of other authors, collected in patent US20020155997A1 (priority 2000, published 2002).

Tested on: bovine plasma
Details: reference standard

dextran sulfate
anticoagulant activity of the standard: 25 units/mg
